Assay [1] has as its target D(2) dopamine receptor (Sus scrofa). Description: The compound was evaluated for the binding affinity towards Dopamine receptor D2 at low affinity state.
For assay [2] the target is unchanged. Briefly: The compound was evaluated for the binding affinity towards Dopamine receptor D2 at high affinity state.
The target in assay [3] is D(1A) dopamine receptor (Canis familiaris). Description: The compound was evaluated for the dissociation constant for inhibiting the binding of [3H]-SCH- 23390 at Dopamine receptor D1.
Assay [4] addresses D(2) dopamine receptor (Sus scrofa). Briefly: The compound was evaluated for the binding affinity towards dopamine receptor D2 at high affinity state.
In assay [5] the target is D(1A) dopamine receptor (Canis familiaris). Description: The compound was evaluated for the dissociation constant for inhibiting the binding of [3H]-SCH- 23390 at dopamine receptor D1.

Consider `Oc1cc2c(c(Br)c1O)CCNCC2c1ccccc1` (configuration not stated), for which the Ki – broadly, the equilibrium dissociation constant of an inhibitor or competing ligand from its target – in assay [1] was determined as 2000 nM; in assay [2] it was 39 nM; in assay [3], 12 nM.

Regarding `CN1CCc2c(cc(O)c(O)c2Br)C(c2ccccc2)C1` (configuration not stated), the Ki amounted to 490 nM in assay [4] and 1.2 nM in assay [5].

`CN1CCc2c(cc(O)c(O)c2Cl)C(c2ccccc2)C1` (configuration not stated): the Ki in assay [4] was 77 nM; in assay [5] it was 0.9 nM.

Source of the values: BindingDB's records for doi:10.1021/jm00116a004 (Northeastern University, 1992).
